# According to ChEMBL document CHEMBL1141036, “2-Alkyl-3-(1,2,3,6-tetrahydropyridin-4-yl)-1H-indoles as novel 5-HT6 receptor agonists” (Bioorg Med Chem Lett, 2005):
# What was measured:
# [1] = target: T1, 5-hydroxytryptamine receptor 6 (Homo sapiens, UniProt P50406); assay: Displacement of [3H]LSD binding to cloned human 5-hydroxytryptamine 6 receptor expressed in HEK cells; type: cell-based, HEK293
# [2] = target: T1, 5-hydroxytryptamine receptor 6; assay: Displacement of [3H]LSD binding to cloned h5-HT6 receptors stably expressed in HEK cells; type: cell-based, HEK293
# [3] = target: T1, 5-hydroxytryptamine receptor 6; assay: Intrinsic activity (IA) at the 5-HT6 receptor determined by measuring their cAMP production in BHK cells and compared to the effect elicited by 5-HT; type: functional, cell-based; conditions: Mesocricetus auratus
# [4] = Concentration to stimulate the cAMP production in BHK cells; type: functional, cell-based; conditions: Homo sapiens
# [5] = target: T1, 5-hydroxytryptamine receptor 6; assay: Displacement of [3H]LSD binding to cloned human 5-hydroxytryptamine 6 receptor stably expressed in HEK cells; type: cell-based, HEK293
# [6] = target: T1, 5-hydroxytryptamine receptor 6; assay: Inhibitory activity against 5-hydroxytryptamine 6 receptor in human
# [7] = target: T2, 5-hydroxytryptamine receptor 1A (Rattus norvegicus, UniProt P19327); assay: Inhibitory activity against 5-hydroxytryptamine 1A receptor in rat
# T2 sequence (P19327 whole entry): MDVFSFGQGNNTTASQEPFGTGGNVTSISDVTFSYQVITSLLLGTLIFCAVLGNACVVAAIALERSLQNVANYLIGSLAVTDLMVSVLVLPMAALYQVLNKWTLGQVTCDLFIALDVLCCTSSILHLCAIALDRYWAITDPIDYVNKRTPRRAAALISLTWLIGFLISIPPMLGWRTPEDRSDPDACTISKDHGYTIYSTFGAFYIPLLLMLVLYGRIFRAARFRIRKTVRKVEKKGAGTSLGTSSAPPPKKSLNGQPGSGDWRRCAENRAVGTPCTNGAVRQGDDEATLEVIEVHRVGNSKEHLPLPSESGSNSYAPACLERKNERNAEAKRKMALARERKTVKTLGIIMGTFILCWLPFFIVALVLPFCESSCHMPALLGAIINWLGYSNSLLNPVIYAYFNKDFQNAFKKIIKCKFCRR
# [8] = target: 5-hydroxytryptamine receptor 3A (Mus musculus) (UniProt P23979); assay: Inhibitory activity against 5-hydroxytryptamine 3 receptor expressed in NG 108 cells
# [9] = target: 5-hydroxytryptamine receptor 2A (Homo sapiens, UniProt P28223); assay: Inhibitory activity against 5-hydroxytryptamine 2A receptor in human
# [10] = target: 5-hydroxytryptamine receptor 7 (Homo sapiens, UniProt P34969); assay: Inhibitory activity against 5-hydroxytryptamine 7 receptor in human
# [11] = target: 5-hydroxytryptamine receptor 1B (Rattus norvegicus, UniProt P28564); assay: Inhibitory activity against 5-hydroxytryptamine 1B receptor in rat
# [12] = target: 5-hydroxytryptamine receptor 4 (Cavia porcellus, UniProt O70528); assay: Inhibitory activity against 5-hydroxytryptamine 4 receptor in guinea pig
# [13] = target: T3, 5-hydroxytryptamine receptor 2C (Homo sapiens, UniProt P28335); assay: Inhibitory activity against 5-hydroxytryptamine 2C receptor in human
# T3 sequence (P28335 whole entry): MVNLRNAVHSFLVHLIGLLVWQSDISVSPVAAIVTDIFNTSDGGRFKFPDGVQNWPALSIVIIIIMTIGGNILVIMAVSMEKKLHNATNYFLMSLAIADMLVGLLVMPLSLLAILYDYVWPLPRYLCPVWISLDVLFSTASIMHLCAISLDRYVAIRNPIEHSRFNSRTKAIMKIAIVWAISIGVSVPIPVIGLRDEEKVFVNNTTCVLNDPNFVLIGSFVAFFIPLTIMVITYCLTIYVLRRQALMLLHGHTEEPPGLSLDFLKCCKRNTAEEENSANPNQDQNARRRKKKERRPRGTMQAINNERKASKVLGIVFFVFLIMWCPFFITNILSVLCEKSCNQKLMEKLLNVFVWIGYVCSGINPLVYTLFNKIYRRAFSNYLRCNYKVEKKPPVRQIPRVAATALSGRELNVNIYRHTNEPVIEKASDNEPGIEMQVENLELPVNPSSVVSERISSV
# 5-hydroxytryptamine receptor 7, sequence (P34969 whole entry): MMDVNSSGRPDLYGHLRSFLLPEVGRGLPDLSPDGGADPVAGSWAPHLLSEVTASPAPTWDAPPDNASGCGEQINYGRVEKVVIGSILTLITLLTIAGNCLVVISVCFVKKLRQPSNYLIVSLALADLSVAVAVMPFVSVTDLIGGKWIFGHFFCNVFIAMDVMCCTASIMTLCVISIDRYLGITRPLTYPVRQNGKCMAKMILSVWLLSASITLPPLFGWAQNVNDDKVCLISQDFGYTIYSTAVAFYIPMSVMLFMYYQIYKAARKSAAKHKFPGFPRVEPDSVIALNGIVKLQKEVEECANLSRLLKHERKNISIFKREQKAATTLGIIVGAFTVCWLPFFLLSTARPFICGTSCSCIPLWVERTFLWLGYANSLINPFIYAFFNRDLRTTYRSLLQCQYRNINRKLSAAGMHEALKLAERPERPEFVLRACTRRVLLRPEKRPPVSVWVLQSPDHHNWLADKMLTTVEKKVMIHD
# 5-hydroxytryptamine receptor 1B, sequence (P28564 whole entry): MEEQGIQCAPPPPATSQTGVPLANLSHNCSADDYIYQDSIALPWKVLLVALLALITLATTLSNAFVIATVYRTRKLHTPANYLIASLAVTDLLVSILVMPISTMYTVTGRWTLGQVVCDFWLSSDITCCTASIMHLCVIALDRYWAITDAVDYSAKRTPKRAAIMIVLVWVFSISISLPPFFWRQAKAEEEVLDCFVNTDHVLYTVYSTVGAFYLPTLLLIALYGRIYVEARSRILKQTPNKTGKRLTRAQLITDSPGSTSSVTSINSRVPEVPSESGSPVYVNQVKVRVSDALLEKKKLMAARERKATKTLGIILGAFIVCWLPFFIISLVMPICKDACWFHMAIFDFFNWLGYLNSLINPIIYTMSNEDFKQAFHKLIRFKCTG
# 5-hydroxytryptamine receptor 3A (Mus musculus), sequence (P23979 whole entry, looked up): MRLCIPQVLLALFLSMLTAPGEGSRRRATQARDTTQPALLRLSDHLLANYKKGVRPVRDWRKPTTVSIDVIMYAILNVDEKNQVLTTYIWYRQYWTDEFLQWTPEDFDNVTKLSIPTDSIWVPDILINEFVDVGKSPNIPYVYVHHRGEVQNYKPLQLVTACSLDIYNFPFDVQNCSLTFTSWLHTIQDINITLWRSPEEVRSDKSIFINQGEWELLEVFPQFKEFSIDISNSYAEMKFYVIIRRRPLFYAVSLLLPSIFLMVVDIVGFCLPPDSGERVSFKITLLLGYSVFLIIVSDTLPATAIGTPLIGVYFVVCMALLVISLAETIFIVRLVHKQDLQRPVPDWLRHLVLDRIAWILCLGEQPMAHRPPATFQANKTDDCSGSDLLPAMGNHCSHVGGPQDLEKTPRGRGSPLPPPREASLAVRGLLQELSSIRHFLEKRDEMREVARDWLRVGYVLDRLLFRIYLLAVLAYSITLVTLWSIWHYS
# 5-hydroxytryptamine receptor 2A, sequence (P28223 whole entry): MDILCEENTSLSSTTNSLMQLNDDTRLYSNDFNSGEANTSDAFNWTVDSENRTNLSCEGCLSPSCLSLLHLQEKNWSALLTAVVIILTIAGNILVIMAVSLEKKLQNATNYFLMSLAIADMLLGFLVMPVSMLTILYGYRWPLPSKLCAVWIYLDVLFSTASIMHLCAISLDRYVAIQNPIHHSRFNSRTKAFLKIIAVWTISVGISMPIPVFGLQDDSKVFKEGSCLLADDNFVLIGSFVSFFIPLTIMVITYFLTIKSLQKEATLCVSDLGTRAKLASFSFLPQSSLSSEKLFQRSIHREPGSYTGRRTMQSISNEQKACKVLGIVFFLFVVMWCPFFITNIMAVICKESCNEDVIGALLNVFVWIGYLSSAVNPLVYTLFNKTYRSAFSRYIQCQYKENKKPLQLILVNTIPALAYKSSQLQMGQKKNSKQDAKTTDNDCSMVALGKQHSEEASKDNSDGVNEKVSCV
# 5-hydroxytryptamine receptor 4, sequence (O70528 whole entry): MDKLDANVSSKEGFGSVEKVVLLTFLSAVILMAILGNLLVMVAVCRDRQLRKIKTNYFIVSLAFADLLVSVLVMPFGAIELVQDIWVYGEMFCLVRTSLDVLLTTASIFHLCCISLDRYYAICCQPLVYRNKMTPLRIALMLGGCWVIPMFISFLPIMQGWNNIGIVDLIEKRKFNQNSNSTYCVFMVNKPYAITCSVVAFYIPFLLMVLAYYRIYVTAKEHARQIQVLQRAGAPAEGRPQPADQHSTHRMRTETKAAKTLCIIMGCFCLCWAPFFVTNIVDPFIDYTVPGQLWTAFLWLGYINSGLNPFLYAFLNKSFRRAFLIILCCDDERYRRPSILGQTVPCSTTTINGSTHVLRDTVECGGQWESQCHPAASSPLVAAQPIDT
# T1 sequence (P50406 whole entry): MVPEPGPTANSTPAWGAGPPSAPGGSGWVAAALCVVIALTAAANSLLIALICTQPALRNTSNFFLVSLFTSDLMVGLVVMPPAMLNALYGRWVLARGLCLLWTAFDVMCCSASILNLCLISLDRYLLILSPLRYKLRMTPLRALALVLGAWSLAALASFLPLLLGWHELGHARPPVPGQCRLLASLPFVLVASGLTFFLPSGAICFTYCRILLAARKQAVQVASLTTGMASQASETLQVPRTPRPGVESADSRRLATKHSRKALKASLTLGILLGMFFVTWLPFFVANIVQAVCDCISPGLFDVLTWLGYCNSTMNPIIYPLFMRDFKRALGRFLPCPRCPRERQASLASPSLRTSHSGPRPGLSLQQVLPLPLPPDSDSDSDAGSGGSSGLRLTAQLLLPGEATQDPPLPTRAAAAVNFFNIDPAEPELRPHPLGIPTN
SMILES,IC50 [1] [nM],IA [3] [%],EC50 [4] [nM],further results
CCc1[nH]c2ccc(Cl)cc2c1C1=CCNCC1,30,,,
CCc1[nH]c2ccc(Cl)cc2c1C1=CCN(CC)CC1,70,,,
CC(C)c1[nH]c2ccc(Cl)cc2c1C1=CCNCC1,100,,,
CCc1[nH]c2ccc(OC)cc2c1C1CCNCC1,,,,IC50 [2]: 300 nM
CCCCN1CC=C(c2c(C)[nH]c3ccc(Cl)cc23)CC1,50,,,
Cc1[nH]c2ccc(Cl)cc2c1CCN(C)C,40,53,16,
CCc1[nH]c2ccc(OC)cc2c1CCN(C)C,,113,710,IC50 [5]: 85 nM; IC50 [6]: 85 nM; IC50 [7]: > 1000 nM; IC50 [8]: > 1000 nM; IC50 [9]: 620 nM; IC50 [10]: 1.5 µM; IC50 [11]: > 1000 nM; IC50 [12]: 44 nM
CCCN1CC=C(c2c(C)[nH]c3ccc(Cl)cc23)CC1,60,,,
CCc1[nH]c2ccc(OC)cc2c1C1=CCNCC1,,100,7.9,IC50 [2]: 90 nM
COc1ccc2[nH]c(C)c(C3=CCNCC3)c2c1,80,100,5.8,IC50 [6]: 80 nM; IC50 [7]: 430 nM; IC50 [8]: > 1000 nM; IC50 [9]: > 1000 nM; IC50 [10]: 9.8 µM; IC50 [11]: 310 nM; IC50 [12]: 9800 nM; IC50 [13]: > 1000 nM
COc1ccc2[nH]cc(C3=CCNCC3)c2c1 [RU-24969],79,55,200,
CCN1CC=C(c2c(C)[nH]c3ccc(Cl)cc23)CC1,30,,,
Cc1[nH]c2ccc(Cl)cc2c1C1=CCNCC1,,92,1,IC50 [7]: 660 nM; IC50 [8]: 34 nM; IC50 [9]: 240 nM; IC50 [10]: 3 µM; IC50 [11]: 180 nM; IC50 [12]: 620 nM; IC50 [13]: 450 nM
Cc1[nH]c2ccc(Cl)cc2c1C1=CCN(Cc2ccccc2)CC1,600,,,
Cc1[nH]c2ccc(Cl)cc2c1C1=CCN(C)CC1,10,152,2.9,
C1=C(c2c(-c3ccccc3)[nH]c3ccccc23)CCNC1,2,,,
CCCc1[nH]c2ccc(Cl)cc2c1C1=CCNCC1,40,,,
Cc1[nH]c2ccc(Cl)cc2c1C1=CC2CCC(C1)N2C (stereo not given),40,75,10000,
